Laboratory results published in the supplement of paper PMC10307832.

How the values were obtained:
Test in all cases: relative viability (nuclei count vs DMSO), 5 days (fraction); higher = more cells survive
IMD-0354 + Bortezomib = compound: O=C(Nc1cc(C(F)(F)F)cc(C(F)(F)F)c1)c1cc(Cl)ccc1O [IMD-0354] + CC(C)C[C@H](NC(=O)[C@H](Cc1ccccc1)NC(=O)c1cnccn1)B(O)O [Bortezomib] (partner 0.002 µM)
In short: (§1)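 Lung cancer cell lines in 1536-well plates were dosed by pin tool the day after seeding, either with one drug alone or with a fixed anchor-drug dose plus five library-drug doses (not always all listed) in √10 steps. After 5 days, cells were fixed and their nuclei stained in one step (final 0.05% Triton X-100, 1% formaldehyde, 1 ug/ml Hoechst), then counted on 4× images. Relative viability is the nuclei count in treated wells divided by that in vehicle wells. Values are medians of duplicate plates.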

IMD-0354 + Pemetrexed = compound: O=C(Nc1cc(C(F)(F)F)cc(C(F)(F)F)c1)c1cc(Cl)ccc1O [IMD-0354] + Nc1nc2[nH]cc(CCc3ccc(C(=O)N[C@@H](CCC(=O)O)C(=O)O)cc3)c2c(=O)[nH]1 [Pemetrexed] (partner 0.2 µM)
In short: as §1

CX-5461 + Crizotinib = compound: Cc1cnc(CNC(=O)c2c(=O)c3ccc(N4CCCN(C)CC4)nc3n3c2sc2ccccc23)cn1 [CX-5461] + C[C@@H](Oc1cc(-c2cnn(C3CCNCC3)c2)cnc1N)c1c(Cl)ccc(F)c1Cl [Crizotinib] (partner 1 µM)
In short: as §1

CX-5461 + Trametinib = compound: Cc1cnc(CNC(=O)c2c(=O)c3ccc(N4CCCN(C)CC4)nc3n3c2sc2ccccc23)cn1 [CX-5461] + CC(=O)Nc1cccc(-n2c(=O)n(C3CC3)c(=O)c3c(Nc4ccc(I)cc4F)n(C)c(=O)c(C)c32)c1 [Trametinib] (partner 0.02 µM)
In short: as §1

UMC-11 gave a relative viability (IMD-0354 + Bortezomib; first compound 0.04 µM) of 1.13, a relative viability (IMD-0354 + Bortezomib; first compound 0.1265 µM) of 0.796 and a relative viability (IMD-0354 + Bortezomib; first compound 0.4 µM) of 0.465. It also gave a relative viability (IMD-0354 + Bortezomib; first compound 1.265 µM) of 0.237, a relative viability (IMD-0354 + Bortezomib; first compound 4 µM) of 0.212 and a relative viability (IMD-0354 + Pemetrexed; first compound 0.04 µM) of 0.819. The relative viability (IMD-0354 + Pemetrexed; first compound 0.1265 µM) was 0.692, the relative viability (IMD-0354 + Pemetrexed; first compound 0.4 µM) was 0.281 and the relative viability (IMD-0354 + Pemetrexed; first compound 1.265 µM) was 0.205. For the same cell line, the relative viability (IMD-0354 + Pemetrexed; first compound 4 µM) was 0.219, the relative viability (CX-5461 + Crizotinib; first compound 0.01 µM) was 0.63 and the relative viability (CX-5461 + Crizotinib; first compound 0.03162 µM) was 0.655. It also gave a relative viability (CX-5461 + Crizotinib; first compound 0.1 µM) of 0.694, a relative viability (CX-5461 + Crizotinib; first compound 0.3162 µM) of 0.607 and a relative viability (CX-5461 + Crizotinib; first compound 1 µM) of 0.153. For the same cell line, the relative viability (CX-5461 + Trametinib; first compound 0.01 µM) was 0.685, the relative viability (CX-5461 + Trametinib; first compound 0.03162 µM) was 0.769 and the relative viability (CX-5461 + Trametinib; first compound 0.1 µM) was 0.762. It also gave a relative viability (CX-5461 + Trametinib; first compound 0.3162 µM) of 0.317 and a relative viability (CX-5461 + Trametinib; first compound 1 µM) of 0.249.
